Reference: ChEMBL document CHEMBL1201862, “PubChem BioAssay data set” (2004)
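Cultured in 96-well plates, cells were exposed to test compound for 48 hours across five concentrations. Here, GI50 denotes the concentration required for 50% inhibition of growth.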 Activity calls are given as the source filed them. No stated cut-off is given here; in the data, active = GI50 up to about 1.1 µM and inactive = higher.

Columns and labels:
Assay in all cases: NCI tumour cell line growth inhibition, 48 h
[1] = system: NCI/ADR-RES
[2] = system: RXF 393
[3] = system: MDA-MB-231
[4] = system: OVCAR-8
[5] = system: SK-MEL-2
[6] = system: A498
[7] = system: HCT-116
[8] = system: SF-295
[9] = system: PC-3
[10] = system: HOP-62
[11] = system: MOLT-4
[12] = system: CAKI-1
[13] = system: A549
[14] = system: KM12
[15] = system: IGROV-1
[16] = system: MDA-MB-435
[17] = system: SF-268
[18] = system: TK-10
[19] = system: OVCAR-5
[20] = system: LOX IMVI
[21] = system: EKVX
[22] = system: Hs-578T
[23] = system: T47D
[24] = system: ACHN
[25] = system: NCI-H226
[26] = system: BT-549
[27] = system: SK-MEL-5
[28] = system: COLO 205
[29] = system: NCI-H23
[30] = system: NCI-H460
[31] = system: SK-MEL-28
[32] = system: HOP-92
[33] = system: UACC-62
[34] = system: SK-OV-3
[35] = system: DU-145
[36] = system: UACC-257
[37] = system: SR
[38] = system: MCF7
[39] = system: Malme-3M
[40] = system: OVCAR-4
[41] = system: NCI-H522
[42] = system: UO-31
[43] = system: HT-29
[44] = system: HCT-15
[45] = system: SF-539
[46] = system: SNB-75
[47] = system: SNB-19
[48] = system: CCRF-CEM
[49] = system: RPMI-8226
[50] = system: 786-0
[51] = system: K562
[52] = system: OVCAR-3
[53] = system: SW-620
[54] = system: M14
[55] = system: HCC 2998
[56] = system: SN12C
[57] = system: U-251
[58] = system: HL-60
[59] = system: MDA-N

In the case of `COc1cccc2c1C(=O)c1c(O)c3c(c(O)c1C2=O)C[C@H](O)C[C@@H]3OC1CC(N)C(O)C(C)O1` (stereo not given in full), the GI50 [1] was 13.4 µM (inactive), the GI50 [2] was 6.58 µM (inactive) and the GI50 [3] was 1.78 µM (inactive). For the same molecule, the GI50 [4] was 1.05 µM (active), the GI50 [5] was 2.02 µM (inactive) and the GI50 [6] was < 0.01 µM (active). For the same molecule, the GI50 [7] was 0.245 µM (active), the GI50 [8] was 1.44 µM (inactive) and the GI50 [9] was 2.09 µM (inactive). For the same molecule, the GI50 [10] was 1.49 µM (inactive), the GI50 [11] was < 0.01 µM (active) and the GI50 [12] was 1.08 µM (active). For the same molecule, the GI50 [13] was 1.98 µM (inactive), the GI50 [14] was 0.811 µM (active) and the GI50 [15] was 1.57 µM (inactive). For the same molecule, the GI50 [16] was 1.82 µM (inactive), the GI50 [17] was 1.57 µM (inactive) and the GI50 [18] was 1.49 µM (inactive). The GI50 [19] was 1.97 µM (inactive), the GI50 [20] was 0.229 µM (active) and the GI50 [21] was 5.21 µM (inactive). For the same molecule, the GI50 [22] was 0.802 µM (active), the GI50 [23] was 1.21 µM (inactive) and the GI50 [24] was 1.17 µM (inactive). The GI50 [25] was 1.08 µM (active), the GI50 [26] was 3.04 µM (inactive) and the GI50 [27] was 0.522 µM (active). For the same molecule, the GI50 [28] was 0.508 µM (active), the GI50 [29] was 1.06 µM (active) and the GI50 [30] was < 0.01 µM (active). The GI50 [31] was 1.7 µM (inactive), the GI50 [32] was 2 µM (inactive) and the GI50 [33] was 0.255 µM (active). For the same molecule, the GI50 [34] was 2.13 µM (inactive), the GI50 [35] was 1.76 µM (inactive) and the GI50 [36] was 1.58 µM (inactive). For the same molecule, the GI50 [37] was < 0.01 µM (active), the GI50 [38] was < 0.01 µM (active) and the GI50 [39] was 0.843 µM (active). The GI50 [40] was 4.36 µM (inactive), the GI50 [41] was 1.57 µM (inactive) and the GI50 [42] was 2.24 µM (inactive). The GI50 [43] was 2.09 µM (inactive), the GI50 [44] was 11.5 µM and the GI50 [45] was 1.33 µM (inactive). For the same molecule, the GI50 [46] was 1.87 µM (inactive), the GI50 [47] was 3.36 µM (inactive) and the GI50 [48] was 0.259 µM (active). For the same molecule, the GI50 [49] was 1.22 µM (inactive), the GI50 [50] was 1.32 µM (inactive) and the GI50 [51] was 1.79 µM (inactive). For the same molecule, the GI50 [52] was 1.85 µM (inactive).
For `CNn1c(-c2ccc(C)cc2)n[nH]c1=O`, the GI50 [1] was > 100 µM (inactive), the GI50 [2] was > 100 µM (inactive) and the GI50 [3] was > 100 µM (inactive). The GI50 [4] was > 100 µM (inactive), the GI50 [5] was > 100 µM (inactive) and the GI50 [6] was > 100 µM (inactive). The GI50 [7] was > 100 µM (inactive), the GI50 [8] was > 100 µM (inactive) and the GI50 [9] was > 100 µM (inactive). The GI50 [10] was > 100 µM (inactive), the GI50 [11] was > 100 µM (inactive) and the GI50 [12] was > 100 µM (inactive). For the same molecule, the GI50 [13] was > 100 µM (inactive), the GI50 [14] was > 100 µM (inactive) and the GI50 [15] was > 100 µM (inactive). For the same molecule, the GI50 [16] was > 100 µM (inactive), the GI50 [17] was > 100 µM (inactive) and the GI50 [18] was > 100 µM (inactive). The GI50 [19] was > 100 µM (inactive), the GI50 [20] was > 100 µM (inactive) and the GI50 [21] was > 100 µM (inactive). The GI50 [22] was > 100 µM (inactive), the GI50 [23] was > 100 µM (inactive) and the GI50 [24] was > 100 µM (inactive). The GI50 [53] was > 100 µM (inactive), the GI50 [25] was > 100 µM (inactive) and the GI50 [54] was > 100 µM (inactive). The GI50 [26] was > 100 µM (inactive), the GI50 [27] was > 100 µM (inactive) and the GI50 [28] was > 100 µM (inactive). For the same molecule, the GI50 [29] was > 100 µM (inactive), the GI50 [30] was > 100 µM (inactive) and the GI50 [32] was > 100 µM (inactive). The GI50 [33] was > 100 µM (inactive), the GI50 [34] was > 100 µM (inactive) and the GI50 [36] was > 100 µM (inactive). For the same molecule, the GI50 [37] was 68.5 µM (inactive), the GI50 [38] was > 100 µM (inactive) and the GI50 [39] was > 100 µM (inactive). The GI50 [40] was > 100 µM (inactive), the GI50 [55] was > 100 µM (inactive) and the GI50 [41] was > 100 µM (inactive). For the same molecule, the GI50 [56] was > 100 µM (inactive), the GI50 [42] was > 100 µM (inactive) and the GI50 [43] was > 100 µM (inactive). The GI50 [44] was over 100 µM, the GI50 [45] was > 100 µM (inactive) and the GI50 [47] was > 100 µM (inactive). The GI50 [48] was 92 µM (inactive), the GI50 [49] was > 100 µM (inactive) and the GI50 [57] was > 100 µM (inactive). The GI50 [50] was > 100 µM (inactive), the GI50 [51] was 55.8 µM (inactive) and the GI50 [52] was > 100 µM (inactive).
In the case of `COC(=O)C1CCC(=O)N1C(c1ccccc1)c1cc(OC)c(OC)c(OC)c1` (stereo not given), the GI50 [1] was 76 µM (inactive), the GI50 [2] was > 100 µM (inactive) and the GI50 [3] was 41.3 µM (inactive). The GI50 [4] was > 100 µM (inactive), the GI50 [6] was 82.4 µM (inactive) and the GI50 [7] was 50 µM (inactive). The GI50 [8] was 38.9 µM (inactive), the GI50 [9] was 51.3 µM (inactive) and the GI50 [10] was > 100 µM (inactive). For the same molecule, the GI50 [11] was 31.8 µM (inactive), the GI50 [12] was 22.3 µM (inactive) and the GI50 [13] was 54.2 µM (inactive). For the same molecule, the GI50 [14] was 45.8 µM (inactive), the GI50 [15] was 63.5 µM (inactive) and the GI50 [16] was 22.3 µM (inactive). For the same molecule, the GI50 [17] was > 100 µM (inactive), the GI50 [18] was > 100 µM (inactive) and the GI50 [19] was > 100 µM (inactive). For the same molecule, the GI50 [20] was 56.2 µM (inactive), the GI50 [21] was 91 µM (inactive) and the GI50 [23] was 55.8 µM (inactive). The GI50 [24] was > 100 µM (inactive), the GI50 [53] was 46.7 µM (inactive) and the GI50 [25] was > 100 µM (inactive). For the same molecule, the GI50 [54] was 43 µM (inactive), the GI50 [26] was 92.7 µM (inactive) and the GI50 [28] was 45.5 µM (inactive). For the same molecule, the GI50 [29] was 62.4 µM (inactive), the GI50 [30] was 43 µM (inactive) and the GI50 [31] was 99.8 µM (inactive). For the same molecule, the GI50 [32] was 99.3 µM (inactive), the GI50 [33] was 60.5 µM (inactive) and the GI50 [34] was > 100 µM (inactive). The GI50 [58] was 29.4 µM (inactive), the GI50 [35] was > 100 µM (inactive) and the GI50 [36] was > 100 µM (inactive). The GI50 [37] was 50.9 µM (inactive), the GI50 [38] was 67.9 µM (inactive) and the GI50 [39] was 61.1 µM (inactive). For the same molecule, the GI50 [40] was 49.7 µM (inactive), the GI50 [55] was > 100 µM (inactive) and the GI50 [41] was 40.2 µM (inactive). The GI50 [56] was 80.5 µM (inactive), the GI50 [42] was 55.1 µM (inactive) and the GI50 [43] was 29.4 µM (inactive). The GI50 [44] was 42.6 µM, the GI50 [45] was 69.5 µM (inactive) and the GI50 [47] was 76.4 µM (inactive). For the same molecule, the GI50 [48] was 53.3 µM (inactive), the GI50 [57] was 80.4 µM (inactive) and the GI50 [50] was > 100 µM (inactive). The GI50 [51] was 21.8 µM (inactive), the GI50 [52] was 51.2 µM (inactive) and the GI50 [59] was 21.8 µM (inactive).
